Measured values: ChEMBL document CHEMBL3885861, “Open TG-GATES”

Species: Rattus norvegicus
Test: Open TG-GATES - Regimen: Single
Format: toxicity, organism-based, Sprague-Dawley
Set-up: regimen Single, gender Male, age 6 weeks
Settings: in vivo, po, 0 mg/kg, route gavage, dose level Control; for APTT / Bas / Eos / Fbg / Hb / Lym / MCH / MCHC / MCV / Mono / Neu / PT / Plat / RBC / Ret / WBC: tissue Blood; for KIDNEY_L / KIDNEY_R / KIDNEY_TOTAL: tissue Kidney; for LIVER: tissue Liver; for ALP / ALT / AST / BUN / CRE / Ca / Cl / DBIL / GLC / IP / K / LDH / Na / PL / RALB / TBIL / TC / TG / TP / gamma-GTP: tissue Plasma

OCCN1CCN(CCCN2c3ccccc3Sc3ccc(C(F)(F)F)cc32)CC1 [FLUPHENAZINE]
TERMINAL_BW (3 h): 199 g | APTT (3 h): 16.1 s | Bas (3 h): 0% | Eos (3 h): 0.6% | Fbg (3 h): 228.2 mg/dL | Hb (3 h): 13.1 g/dL | Lym (3 h): 80.4% | MCH (3 h): 21.2 pg | MCHC (3 h): 33% | MCV (3 h): 64.3 fL | Mono (3 h): 6.8% | Neu (3 h): 12.2% | PT (3 h): 12.5 s | Plat (3 h): 106.1 x10_4/uL | RBC (3 h): 617.6 x10_4/ul | Ret (3 h): 7.6% | WBC (3 h): 113.1 x10_2/uL | KIDNEY_L (3 h): 0.9 g | KIDNEY_R (3 h): 0.9 g | KIDNEY_TOTAL (3 h): 1.9 g | LIVER (3 h): 9.6 g | ALP (3 h): 888.6 IU/L | ALT (3 h): 34.8 IU/L | AST (3 h): 63.4 IU/L | BUN (3 h): 13 mg/dL | CRE (3 h): 0.5 mg/dL | Ca (3 h): 10.9 mg/dL | Cl (3 h): 104.2 meq/L | DBIL (3 h): 0.006 mg/dL | GLC (3 h): 179 mg/dL | IP (3 h): 10.3 mg/dL | K (3 h): 5.1 meq/L | LDH (3 h): 86.2 IU/L | Na (3 h): 138 meq/L | PL (3 h): 154.2 mg/dL | RALB (3 h): 3.9 g/dL | TBIL (3 h): 0.3 mg/dL | TC (3 h): 85.8 mg/dL | TG (3 h): 53.6 mg/dL | TP (3 h): 5.5 g/dL | gamma-GTP (3 h): 1.4 IU/L | TERMINAL_BW (6 h): 196.6 g | APTT (6 h): 16.4 s | Bas (6 h): 0% | Eos (6 h): 1% | Fbg (6 h): 214.4 mg/dL | Hb (6 h): 13 g/dL | Lym (6 h): 75.8% | MCH (6 h): 21.6 pg | MCHC (6 h): 33.2% | MCV (6 h): 65.1 fL | Mono (6 h): 8.2% | Neu (6 h): 15.4% | PT (6 h): 12.8 s | Plat (6 h): 108.7 x10_4/uL | RBC (6 h): 601.2 x10_4/ul | Ret (6 h): 8.4% | WBC (6 h): 105.2 x10_2/uL | KIDNEY_L (6 h): 0.9 g | KIDNEY_R (6 h): 0.9 g | KIDNEY_TOTAL (6 h): 1.8 g | LIVER (6 h): 8.6 g | ALP (6 h): 819.6 IU/L | ALT (6 h): 33.6 IU/L | AST (6 h): 67.4 IU/L | BUN (6 h): 11.2 mg/dL | CRE (6 h): 0.5 mg/dL | Ca (6 h): 10.2 mg/dL | Cl (6 h): 105.8 meq/L | DBIL (6 h): 0.03 mg/dL | GLC (6 h): 180.8 mg/dL | IP (6 h): 10 mg/dL | K (6 h): 4.7 meq/L | LDH (6 h): 93 IU/L | Na (6 h): 137 meq/L | PL (6 h): 118.2 mg/dL | RALB (6 h): 3.6 g/dL | TBIL (6 h): 0.4 mg/dL | TC (6 h): 65.8 mg/dL | TG (6 h): 36.8 mg/dL | TP (6 h): 5.3 g/dL | gamma-GTP (6 h): 1.6 IU/L | TERMINAL_BW (9 h): 197.8 g | APTT (9 h): 16.6 s | Bas (9 h): 0% | Eos (9 h): 0.8% | Fbg (9 h): 220.8 mg/dL | Hb (9 h): 12.6 g/dL | Lym (9 h): 77.6% | MCH (9 h): 21.7 pg | MCHC (9 h): 33.1% | MCV (9 h): 65.6 fL | Mono (9 h): 9% | Neu (9 h): 13.2% | PT (9 h): 12.5 s | Plat (9 h): 111.9 x10_4/uL | RBC (9 h): 581.6 x10_4/ul | Ret (9 h): 8.6% | WBC (9 h): 107.8 x10_2/uL | KIDNEY_L (9 h): 0.9 g | KIDNEY_R (9 h): 0.9 g | KIDNEY_TOTAL (9 h): 1.9 g | LIVER (9 h): 8.6 g | ALP (9 h): 831.6 IU/L | ALT (9 h): 29.2 IU/L | AST (9 h): 58.8 IU/L | BUN (9 h): 11.8 mg/dL | CRE (9 h): 0.5 mg/dL | Ca (9 h): 10.3 mg/dL | Cl (9 h): 103.8 meq/L | DBIL (9 h): 0.012 mg/dL | GLC (9 h): 186.4 mg/dL | IP (9 h): 10.2 mg/dL | K (9 h): 4.6 meq/L | LDH (9 h): 86.4 IU/L | Na (9 h): 137.2 meq/L | PL (9 h): 145 mg/dL | RALB (9 h): 3.7 g/dL | TBIL (9 h): 0.3 mg/dL | TC (9 h): 84.6 mg/dL | TG (9 h): 46.8 mg/dL | TP (9 h): 5.4 g/dL | gamma-GTP (9 h): 1.2 IU/L | TERMINAL_BW (24 h): 211.2 g | APTT (24 h): 16.8 s | Bas (24 h): 0% | Eos (24 h): 0.2% | Fbg (24 h): 217.6 mg/dL | Hb (24 h): 12.9 g/dL | Lym (24 h): 80.8% | MCH (24 h): 22.4 pg | MCHC (24 h): 33.4% | MCV (24 h): 67.1 fL | Mono (24 h): 7.4% | Neu (24 h): 11.4% | PT (24 h): 12 s | Plat (24 h): 113.4 x10_4/uL | RBC (24 h): 574.6 x10_4/ul | Ret (24 h): 8% | WBC (24 h): 137.9 x10_2/uL | KIDNEY_L (24 h): 0.9 g | KIDNEY_R (24 h): 1 g | KIDNEY_TOTAL (24 h): 1.9 g | LIVER (24 h): 10.7 g | ALP (24 h): 951.8 IU/L | ALT (24 h): 38.6 IU/L | AST (24 h): 69.6 IU/L | BUN (24 h): 18.8 mg/dL | CRE (24 h): 0.5 mg/dL | Ca (24 h): 11.1 mg/dL | Cl (24 h): 104.2 meq/L | DBIL (24 h): 0.012 mg/dL | GLC (24 h): 183.8 mg/dL | IP (24 h): 8.8 mg/dL | K (24 h): 4.9 meq/L | LDH (24 h): 107.4 IU/L | Na (24 h): 137.4 meq/L | PL (24 h): 160.8 mg/dL | RALB (24 h): 4 g/dL | TBIL (24 h): 0.3 mg/dL | TC (24 h): 80 mg/dL | TG (24 h): 134.2 mg/dL | TP (24 h): 5.8 g/dL | gamma-GTP (24 h): 1.8 IU/L
